Our source for the IC50 values is patent US20260242351A1, “LZK INHIBITORS” (Uereka Biosciences, Inc., priority 2023, published 2026).

The structures appear in SMILES notation. Where a name gives a salt, the structure may show the parent alone.

One experiment deals with T1, LZK (Homo sapiens, UniProt O43283).
T1 construct: made in house; host or cells: HEK-293 cells
T1 sequence (O43283 1-966): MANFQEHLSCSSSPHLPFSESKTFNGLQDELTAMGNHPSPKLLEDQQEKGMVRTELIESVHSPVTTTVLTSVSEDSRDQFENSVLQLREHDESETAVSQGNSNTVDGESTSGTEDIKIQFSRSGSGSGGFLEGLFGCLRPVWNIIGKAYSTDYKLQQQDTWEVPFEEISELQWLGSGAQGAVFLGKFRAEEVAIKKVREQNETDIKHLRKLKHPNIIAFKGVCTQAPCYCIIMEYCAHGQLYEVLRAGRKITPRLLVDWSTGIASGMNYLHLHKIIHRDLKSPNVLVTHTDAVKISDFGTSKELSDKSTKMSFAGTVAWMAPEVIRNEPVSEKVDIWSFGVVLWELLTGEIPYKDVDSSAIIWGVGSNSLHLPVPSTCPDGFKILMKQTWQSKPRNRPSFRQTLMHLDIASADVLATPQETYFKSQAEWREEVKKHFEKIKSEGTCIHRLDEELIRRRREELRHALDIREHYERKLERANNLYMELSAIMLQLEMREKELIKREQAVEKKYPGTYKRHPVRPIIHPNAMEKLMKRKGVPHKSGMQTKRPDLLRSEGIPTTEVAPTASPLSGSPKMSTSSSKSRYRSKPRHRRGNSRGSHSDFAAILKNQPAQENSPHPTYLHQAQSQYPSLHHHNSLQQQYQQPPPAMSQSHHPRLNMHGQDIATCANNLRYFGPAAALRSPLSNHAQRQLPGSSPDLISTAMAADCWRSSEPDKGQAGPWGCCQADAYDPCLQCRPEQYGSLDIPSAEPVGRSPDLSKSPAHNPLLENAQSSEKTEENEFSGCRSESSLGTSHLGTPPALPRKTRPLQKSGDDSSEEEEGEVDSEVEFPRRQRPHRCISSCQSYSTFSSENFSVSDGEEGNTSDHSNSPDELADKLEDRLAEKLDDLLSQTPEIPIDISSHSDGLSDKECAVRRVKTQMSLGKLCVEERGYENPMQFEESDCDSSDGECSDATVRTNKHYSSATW
Nature of the experiment: LZK and DLK Inhibition Assay (competition binding to liganded affinity beads, qPCR readout): LZK. The following applies: kinase produced in HEK-293 cells, 11-point 3-fold dilution series. The procedure:
(§1) The kinases were produced in HEK-293 cells and subsequently tagged with DNA for qPCR detection. Streptavidin-coated magnetic beads were treated with biotinylated small molecule ligands for 30 minutes at room temperature to generate affinity resins for the kinase assays. The liganded beads were blocked with excess biotin and washed with blocking buffer (SeaBlock (Pierce), 1% BSA, 0.05% Tween 20, 1 mM DTT) to remove unbound ligand and to reduce non-specific binding. Binding reactions were assembled by combining LZK and DLK kinases, liganded affinity beads, and test compounds in 1× binding buffer (20% SeaBlock, 0.17×PBS, 0.05% Tween 20, 6 mM DTT). Test compounds were prepared as 111× stocks in 100% DMSO. Kds were determined using an 11-point 3-fold compound dilution series with three DMSO control points. All compounds for Kd measurements are distributed by acoustic transfer (non-contact dispensing) in 100% DMSO. The compounds were then diluted directly into the assays such that the final concentration of DMSO was 0.9%. All reactions performed in polypropylene 384-well plate. Each was a final volume of 0.02 mL. The assay plates were incubated at room temperature with shaking for 1 hour and the affinity beads were washed with wash buffer (lx PBS, 0.05% Tween 20). The beads were then re-suspended in elution buffer (1×PBS, 0.05% Tween 20, 0.5 μM nonbiotinylated affinity ligand) and incubated at room temperature with shaking for 30 minutes. The kinase concentration in the eluates was measured by qPCR.
On the technique in general: Real-time PCR tracks product formation cycle by cycle.

Another experiment deals with T2, DLK (Homo sapiens, UniProt Q12852).
T2 construct: made in house; host or cells: HEK-293 cells
T2 sequence (Q12852 1-859): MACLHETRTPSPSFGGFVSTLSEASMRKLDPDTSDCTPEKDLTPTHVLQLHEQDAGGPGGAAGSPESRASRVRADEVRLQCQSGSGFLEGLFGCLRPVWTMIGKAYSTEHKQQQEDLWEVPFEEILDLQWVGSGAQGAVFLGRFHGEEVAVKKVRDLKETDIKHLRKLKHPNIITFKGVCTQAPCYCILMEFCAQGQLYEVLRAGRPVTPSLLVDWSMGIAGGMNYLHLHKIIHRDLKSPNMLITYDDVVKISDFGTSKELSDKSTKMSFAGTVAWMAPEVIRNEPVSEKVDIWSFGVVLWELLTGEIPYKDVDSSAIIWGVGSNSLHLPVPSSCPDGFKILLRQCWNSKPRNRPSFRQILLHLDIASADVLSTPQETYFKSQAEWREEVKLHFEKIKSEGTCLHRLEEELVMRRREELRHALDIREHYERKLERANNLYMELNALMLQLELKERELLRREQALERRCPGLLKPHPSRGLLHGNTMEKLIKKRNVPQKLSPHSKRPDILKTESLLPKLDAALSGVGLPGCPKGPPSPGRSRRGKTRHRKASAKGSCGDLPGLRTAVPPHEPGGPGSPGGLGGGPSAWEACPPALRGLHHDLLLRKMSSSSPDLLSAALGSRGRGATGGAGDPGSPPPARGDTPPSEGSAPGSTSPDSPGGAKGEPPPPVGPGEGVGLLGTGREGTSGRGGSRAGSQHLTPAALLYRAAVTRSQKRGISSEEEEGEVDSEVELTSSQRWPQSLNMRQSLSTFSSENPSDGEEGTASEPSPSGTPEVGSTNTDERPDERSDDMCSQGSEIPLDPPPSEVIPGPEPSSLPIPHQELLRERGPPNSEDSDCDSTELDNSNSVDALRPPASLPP
Nature of the experiment: LZK and DLK Inhibition Assay (competition binding to liganded affinity beads, qPCR readout): DLK. As to conditions: kinase produced in HEK-293 cells, 11-point 3-fold dilution series. The procedure: as §1

`Fc1c(C2CCN(CC3CC3)CC2)cc(Nc2cnc(C3CC3)cn2)nc1N1CC2CC2C1` (stereo not shown) [Compound 1, N-(6-(3-Azabicyclo[3.1.0]hexan-3-yl)-4-(1-(cyclopropylmethyl)piperidin-4-yl)-5-fluoropyridin-2-yl)-5-cyclopropylpyrazin-2-amine]: the IC50 on LZK and on DLK was not above 0.1 µM throughout. Take `Fc1c(N2CC3CC2CN3)cc(Nc2ccc(C(F)(F)F)cn2)nc1N1CCOCC1` (stereo not shown) [Compound 6, 4-(2,5-Diazabicyclo[2.2.1]heptan-2-yl)-5-fluoro-6-morpholino-N-(5-(trifluoromethyl)pyridin-2-yl)pyridin-2-amine]: the IC50 at LZK and at DLK was 1 to 10 µM throughout. For the compound `N#Cc1c(C2CCN(CC3CC3)CC2)cc(Nc2cnc(C3CC3)cn2)nc1N1CC2CC2C1` (stereo not shown) [Compound 8, 2-(3-Azabicyclo[3.1.0]hexan-3-yl)-4-(1-(cyclopropylmethyl)piperidin-4-yl)-6-((5-cyclopropylpyrazin-2-yl)amino)nicotinonitrile formic acid salt], the IC50 at LZK and at DLK was not above 0.1 µM each time. For the compound `Fc1c(N2CCNCC2)cc(Nc2cnc(C3CC3)cn2)nc1N1CCOCC1` [Compound 10, 5-Cyclopropyl-N-(5-fluoro-6-morpholino-4-(piperazin-1-yl)pyridin-2-yl)pyrazin-2-amine], the IC50 at LZK is not above 0.1 µM. On to `Fc1c(N2CCNCC2)cc(Nc2ccc(C(F)(F)F)cn2)nc1N1CCOCC1` [Compound 5, 5-Fluoro-6-morpholino-4-(piperazin-1-yl)-N-(5-(trifluoromethyl)pyridin-2-yl)pyridin-2-amine], for which the IC50 on LZK is 0.1 to 1 µM; on DLK, 1 to 10 µM. In the same order, the values of `Fc1c(N2CC3CC2CN3)cc(Nc2ccc(C(F)F)cn2)nc1N1CCOCC1` (stereo not shown) [Compound 4, 4-(2,5-Diazabicyclo[2.2.1]heptan-2-yl)-N-(5-(difluoromethyl)pyridin-2-yl)-5-fluoro-6-morpholinopyridin-2-amine di-TFA salt] are 1 to 10 µM and 1 to 10 µM.

Turning to `Nc1c(C2CCN(CC3CC3)CC2)cc(Nc2cnc(C3CC3)cn2)nc1N1CC2CC2C1` (stereo not shown) [Compound 9, 6-(3-azabicyclo[3.1.0]hexan-3-yl)-4-(1-(cyclopropylmethyl)piperidin-4-yl)-N2-(5-cyclopropylpyrazin-2-yl)pyridine-2,5-diamine 2,2,2-trifluoroacetate], the IC50 on LZK and at DLK was not above 0.1 µM throughout. As for `Fc1c(C2CCN(CC3CC3)CC2)cc(N2CC3CC3C2)nc1Nc1cnc(C2CC2)cn1` (stereo not shown) [Compound 2, N-(6-(3-Azabicyclo[3.1.0]hexan-3-yl)-4-(1-(cyclopropylmethyl)piperidin-4-yl)-3-fluoropyridin-2-yl)-5-cyclopropylpyrazin-2-amine], the IC50 was 0.1 to 1 µM on LZK and not above 0.1 µM at DLK. In the same order, the values of `Fc1c(N2CCNCC2)cc(Nc2ccc(C(F)F)cn2)nc1N1CCOCC1` [Compound 3, N-(5-(Difluoromethyl)pyridin-2-yl)-5-fluoro-6-morpholino-4-(piperazin-1-yl)pyridin-2-amine di-TFA salt] are 0.1 to 1 µM and 0.1 to 1 µM.

Take `Clc1c(C2CCN(CC3CC3)CC2)cc(Nc2cnc(C3CC3)cn2)nc1N1CC2CC2C1` (stereo not shown) [Compound 7, N-(6-(3-Azabicyclo[3.1.0]hexan-3-yl)-5-chloro-4-(1-(cyclopropylmethyl)piperidin-4-yl)pyridin-2-yl)-5-cyclopropylpyrazin-2-amine TFA salt]: the IC50 at LZK and at DLK was 1 to 10 µM each time.

As usually defined, the IC50 is the midpoint of a concentration-inhibition curve. Low readings indicate greater potency, high ones weaker potency.
